“Also recorded” adds a separate entry of the source. Where two headings read alike, the source gives them in different places. Marks after values point to notes of the source that are not given here.
How the values were obtained:
[1] = tested on: QT interval; assay: Population pharmacokinetic-pharmacodynamic model of piperaquine concentration vs double-delta-corrected QTc prolongation (12-lead ECG); format: in vivo, human
Experimental: Subjects were rested for at least 20 min before ECG measurements were taken (ECG‐1250 K, Nihon Kohden, Japan). 12‐lead ECG measurements were performed twice before drug administration, and at 1, 2, 4, 8, 12, and 24 h after each study drug administration. The ECGs were recorded at 10 mm mV^–1 sensitivity, and 25 mm s^–1 paper speed. Automatic readouts of all ECG measurements were collected but all ECGs with a reported QT interval greater than 450 ms were manually adjudicated by a research physician (unblinded) and a cardiologist (blinded). Other abnormal ECG waveforms were read by a cardiologist. Observed QT intervals were later corrected for heart rate by both the Fridericia and Bazett formulae 24. Data‐driven individual and study population correction factors were also evaluated (see section on methodology, below).
The observed QT interval must be corrected for heart rate in order to compare QT intervals between and within patients. Observed QT measurements were corrected by the traditionally used Bazett and Fridericia formulae (i.e. fixing the exponent (α) to 1/2 and 1/3, respectively, in Equation (5)). Furthermore, all observed individual QT and RR intervals from the placebo arm (i.e. primaquine‐alone arm) in a subject were used to determine the optimal individual QT correction factor (α) for each subject using ordinary least‐squares fit (Equation (5)). The calculated individual correction factor for a particular subject was then applied to all measured QT intervals for that subject, in order to generate corrected QT intervals (QTc) 24.
The appropriateness of the applied correction methods was evaluated by individual linear regression analysis of QTc vs. RR. The relationship between piperaquine drug concentrations and QRS, JT (i.e. QT – QRS) and QT intervals was evaluated with ordinary linear regression to assess the most appropriate modelling approach.
Double‐delta corrections are commonly performed to adjust for the observed circadian rhythm of ECG measurements 37. Thus, double‐delta‐corrected QTc prolongations (ΔΔQTc) were calculated by subtracting the placebo arm ΔQTc from the treatment arm ΔQTc, as in Equation (7). The primaquine‐alone arm was used as the placebo arm.
Calculated ΔΔQTc‐prolongations were used as the pharmacodynamic endpoint. Individually predicted piperaquine concentrations (CP) were obtained from imputing individual pharmacokinetic parameter estimates directly into the pharmacodynamic model. The relationship between drug exposure and QT prolongation was evaluated initially by a linear direct‐response pharmacodynamic model, as in Equation (8).
(8) ΔΔQTc=θ1+η1+θ2×CPt+εi where θ1 represents the typical baseline ΔΔQTc prolongation, η1 is the normally distributed between‐subject variability, θ2 is the slope of the exposure–response relationship and εi is the normally distributed residual error. Different exposure–response relationships (i.e. power model and EMAX model) were also investigated during the model development process. Hysteresis was investigated to account for a possible delayed exposure–response relationship (i.e. turn‐over and link models).
Age, gender, electrolyte levels (i.e. potassium and sodium) at admission and concomitant primaquine administration were evaluated as linear covariates on the piperaquine‐related ΔΔQTc prolongation, using a stepwise addition–deletion approach (as described above). Model evaluation and diagnostics were performed in the same manner as for the pharmacokinetic modelling approach.

[2] = Drug-drug interaction with primaquine coadministration (stepwise and full covariate approach, bootstrap n = 1000); format: in vivo, human; conditions: for Effect of primaquine coadministration on pharmacokinetic properties: stepwise covariate approach
Text: All continuous and categorical covariates (aspartate aminotransferase, alanine aminotransferase, alkaline phosphatase, haemoglobin, blood urea nitrogen, serum creatinine level, albumin level, primaquine coadministration and age) were investigated by using a stepwise forward inclusion (P‐value <0.05), followed by stepwise backward elimination (P‐value >0.001). A strict P‐value of 0.001 for the backward elimination was used as there were relatively few subjects in the present study 34. Gender was not evaluated as a covariate owing to the substantial imbalance between male and female subjects (five males out of 16 subjects). The effect of primaquine coadministration was also modelled separately, using a full covariate approach in which the primaquine coadministration was implemented as a categorical covariate on all pharmacokinetic parameters (except relative bioavailability owing to identifiability issues) in the final pharmacokinetic model. The full covariate models were bootstrapped (n = 1000) to determine a potentially influential drug–drug interaction on primary and secondary pharmacokinetic parameters. A primaquine‐dependent change of more than ±25% in parameter estimates was deemed a clinically relevant drug–drug interaction.

[3] = cited from earlier work
[4] = Population pharmacokinetic modelling of DHA and piperaquine plasma concentrations in healthy Thai volunteers; format: in vivo, human; conditions: for half-life / AUC / Cmax / Tmax: both sexes, plasma, oral; for AUC: read-out: AUC (time zero to infinity), median (range); for Cmax: read-out: CMAX, median (range); for Tmax: read-out: TMAX, median (range); for MTT (mean transit time), population estimate (%RSE): oral DHA-piperaquine three tablets
Experimental: It was a descriptive pharmacokinetic-pharmacodynamic study and no formal sample size calculations were performed. […] All volunteers received primaquine alone in the first phase, followed by a washout period of 1 week. In the second and third phases, volunteers received DHA-piperaquine alone and DHA-piperaquine coadministered with primaquine at random, with an intervening washout period of 8 weeks. Study drug regimens comprised two tablets of primaquine (each tablet containing 15 mg primaquine base) and three tablets of co-formulated DHA-piperaquine (each tablet containing 40 mg DHA and 320 mg piperaquine phosphate). Study drugs were administered in the morning, 30 min after a light meal (~200 kcal and 8 g fat) with a glass of water. Venous blood samples (2 ml) were collected into fluoride-oxalate blood collection tubes. Blood samples were taken at 0 (predose), 0.25, 0.5, 1, 1.5, 2, 3, 4, 6, 8, 10, 12, and 24 h postdose. Additional blood samples were taken at days 3, 4, 7, 11, 15, 22, and 36 for piperaquine drug measurements. The exact drug administration and sampling times were recorded. Blood and plasma were separated by centrifugation at 2000 × g at 4°C for 7 min. All plasma samples were stored below -70°C and transferred on dry ice to the Department of Clinical Pharmacology, Mahidol-Oxford Tropical Medicine Research Unit (MORU), Bangkok, Thailand, for drug quantification. Plasma concentrations of DHA and piperaquine were measured using solid-phase extraction followed by liquid chromatography coupled with tandem mass spectrometry 25, 26. Quality control samples at low, middle and high concentration (5.87, 117 and 1880 ng ml^-1 for DHA and 4.50, 20.0 and 400 ng ml^-1 for piperaquine) were analysed in triplicate within each batch of study samples, to ensure the accuracy and precision of the drug assay. […] The lower limit of quantification (LLOQ) was set to be 2.00 ng ml^-1 for DHA and 1.50 ng ml^-1 for piperaquine. The laboratory is a participant in the QA/QC proficiency testing programme supported by the Worldwide Antimalarial Resistance Network 27. DHA and piperaquine plasma concentrations were transformed into their natural logarithms and analysed using a nonlinear mixed-effects modelling approach in NONMEM version 7.3 (Icon Development Solution, Ellicott City, MD, USA). […] version 2.9.0 28, Perl-speaks-NONMEM version 3.5.3 (PsN) 29 and Xpose version 4.0 30 were used for automation, model evaluation and diagnostics during the model-building process. The first-order conditional estimation method with interactions (continuous data only) or the Laplacian estimation method (a combination of continuous and categorical data) was used throughout modelling and simulation. […] Therefore, two LLOQ methods were evaluated during the model-building process 31. Data below the LLOQ were omitted (M1 method) or modelled as categorical data (M3 method). Model fitness was evaluated primarily by the objective function value (OFV; calculated by NONMEM as proportional to -2 × log-likelihood of the data). […] One-, two-, three- and four-compartment structural disposition models were evaluated for DHA and piperaquine. The best performing model was used to evaluate the absorption characteristics of DHA and piperaquine (i.e. first-order absorption with and without lag time, zero-order absorption and transit absorption). The transit compartment absorption model is a more mechanistic description of delayed absorption compared with the dichotomous properties of a lag-time model 32.

[5] = human, with primaquine, Bayesian post hoc estimates
[6] = human, with primaquine, Bayesian post hoc estimates, read-out: t1/2 (terminal half-life), median (range) (converted)
[7] = human, without primaquine, Bayesian post hoc estimates
[8] = human, without primaquine, Bayesian post hoc estimates, read-out: t1/2 (terminal half-life), median (range) (converted)
[9] = healthy volunteers, typical individual 64 kg
[10] = healthy volunteers, typical individual 64 kg, two-compartment model
[11] = full covariate approach, 95% CI included zero effect
[12] = F fixed to 100% for the population
[13] = healthy volunteers, typical individual 64 kg, three-compartment model

## COc1cc(NC(C)CCCN)c2ncccc2c1 (centres unmarked) [primaquine]
[1]; primaquine-alone arm, 30 mg base, ordinary linear regression
  Relationship between ΔQTc and primaquine concentrations: no correlation; also recorded: no impact on ventricular repolarization
[1]; stepwise covariate approach
  Effect of primaquine on the piperaquine exposure-QTc prolongation relationship: did not affect the relationship

## C[C@H]1[C@@H](O)O[C@@H]2O[C@@]3(C)CC[C@H]4[C@H](C)CC[C@@H]1[C@@]24OO3 [dihydroartemisinin]
[2]; listed as DHA
  Effect of primaquine coadministration on pharmacokinetic properties: did not affect the pharmacokinetic properties; also recorded: did not have a significant impact
[3]
  Elimination half-life: 1 to 2 h
  Terminal half-life in previous reports: 8.7 to 150 min
[4]; human, three-compartment model, not carried forward, read-out: Median terminal half-life from the three-compartment model (converted)
  half-life: 3.11 h
[4]; [5]
  AUC: 798 ng·h/mL
  Cmax: 357 ng/mL
  Tmax: 1.27 h
[4]; [6]
  half-life: 2.2 h
[4]; [7]
  AUC: 767 ng·h/mL
  Cmax: 361 ng/mL
  Tmax: 1.3 h
[4]; [8]
  half-life: 2.2 h
[4]; [9]
  MTT (mean transit time), population estimate (%RSE): 0.567 (11.4%) h
  CL/F (oral clearance), population estimate (%RSE): 148 (10.6%) l h^-1
  VC/F (apparent central volume of distribution), population estimate (%RSE): 214 (16.9%) l
  ka (absorption rate constant from last transit compartment to central compartment), population estimate (%RSE): 2.89 (37.1%) h^-1
[4]; [10]
  QP/F (inter-compartment clearance), population estimate (%RSE): 28.5 (26.0%) l h^-1
  VP/F (apparent peripheral volume of distribution), population estimate (%RSE): 65.9 (19.1%) l
[4]; human, in vivo
  Between-occasion variability of ka, %CV (%RSE): 89.0% (23.7%) ^*
[4]; human, in vivo, listed as DHA
  Between-occasion variability of ka, %CV (%RSE): 89.0%

## Clc1ccc2c(N3CCN(CCCN4CCN(c5ccnc6cc(Cl)ccc56)CC4)CC3)ccnc2c1 [piperaquine]
[2]; [11]
  Median decrease in central volume of distribution during concomitant primaquine: 37.3% (95% CI −67.6%, 33.7%)
  Median increase in mean transit absorption time during concomitant primaquine: 26.8% (95% CI −21.2%, 62.5%)
[2]
  Effect of primaquine coadministration on pharmacokinetic properties: did not affect the pharmacokinetic properties; also recorded: did not have a significant impact
[3]; introduction
  Terminal elimination half-life: 480 to 720 h
[3]; repeated bimonthly treatment doses
  Increase in piperaquine trough concentrations at week 36 compared with week 4: 267% (range 146–381%)
[3]; repeated monthly treatment doses
  Increase in piperaquine trough concentrations at week 36 compared with week 4: 336% (range 271–402%)
[3]; standard 3-day regimen of 50 mg kg^-1, pregnant and nonpregnant women with uncomplicated P. falciparum malaria
  Median maximum piperaquine concentration: 244 ng/mL
[1]; linear direct-response model, healthy volunteers
  SLOPE (slope of the relationship between piperaquine concentration and ΔΔQTc prolongation), population estimate (%RSE): 0.0417 (12.5%) ms (ng ml^-1)^-1
[1]; ordinary linear regression, P = 0.520
  Relationship between piperaquine drug concentrations and ΔQRS: no significant relationship
[1]; per 100 ng ml^-1, individually corrected QT, healthy volunteers
  Population mean increase in ΔΔQTc (QT interval) per 100 ng ml^-1 increase in piperaquine plasma concentration: 4.17 ms
[4]; [12]
  Between-occasion variability of F (relative bioavailability), %CV (%RSE): 19.1% (13.3%) ^*
  Between-subject variability of F (relative bioavailability), %CV (%RSE): 17.9% (34.0%)
[4]; [5]
  Cmax: 300 ng/mL
  Tmax: 3.98 h
[4]; [6]
  half-life: 530 h
[4]; [7]
  Cmax: 332 ng/mL
  Tmax: 3.76 h
[4]; [8]
  half-life: 530 h
[4]; [9]
  MTT (mean transit time), population estimate (%RSE): 3.13 (9.42%) h
  CL/F (oral clearance), population estimate (%RSE): 27.4 (5.50%) l h^-1
  VC/F (apparent central volume of distribution), population estimate (%RSE): 751 (23.5%) l
[4]; [13]
  QP1/F (inter-compartment clearance), population estimate (%RSE): 206 (9.56%) l h^-1
  QP2/F (inter-compartment clearance), population estimate (%RSE): 71.5 (9.01%) l h^-1
  VP1/F (apparent peripheral volume of distribution), population estimate (%RSE): 1900 (8.23%) l
[4]; human, in vivo
  Between-occasion variability of MTT, %CV (%RSE): 32.2% (13.4%) ^*
  Between-subject variability of CL/F, %CV (%RSE): 10.9% (37.2%)
  Between-subject variability of QP2/F, %CV (%RSE): 24.1% (36.3%)
  Between-subject variability of VC/F, %CV (%RSE): 42.4% (40.9%)
  Variability in the absorption characteristics: below 35%
[4]; with primaquine, Bayesian post hoc estimates
  Day 7 conc., median (range): 16.7 (13.8–28.9) ng ml^-1
[4]; without primaquine, Bayesian post hoc estimates
  Day 7 conc., median (range): 18.3 (10.5–34.9) ng ml^-1
